Each block holds one compound with its values, some of them ahead of it.
What was measured:
[1] = molecular target: T1, P2X2/P2X3 heterotrimeric receptor (Homo sapiens, UniProt P56373+Q9UBL9); test: Antagonist activity at human P2X2/3 receptor expressed in 1321n1c cells by FLIPR; assay type: functional, cell-based
T1 sequence (Q9UBL9 whole entry): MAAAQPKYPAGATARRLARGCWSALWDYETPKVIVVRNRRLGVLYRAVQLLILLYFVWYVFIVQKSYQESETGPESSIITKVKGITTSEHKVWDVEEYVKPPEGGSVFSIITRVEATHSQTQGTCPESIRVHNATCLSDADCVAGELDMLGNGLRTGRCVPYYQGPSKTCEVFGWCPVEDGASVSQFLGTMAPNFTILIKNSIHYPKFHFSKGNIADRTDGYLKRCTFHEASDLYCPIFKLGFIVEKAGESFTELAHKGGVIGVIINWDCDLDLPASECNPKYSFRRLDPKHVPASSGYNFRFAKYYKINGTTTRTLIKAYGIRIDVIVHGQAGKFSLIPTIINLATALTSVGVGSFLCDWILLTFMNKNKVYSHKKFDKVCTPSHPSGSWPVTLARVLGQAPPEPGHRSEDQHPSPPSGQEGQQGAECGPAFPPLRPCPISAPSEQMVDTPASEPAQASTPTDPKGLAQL
T1 sequence (P56373 whole entry): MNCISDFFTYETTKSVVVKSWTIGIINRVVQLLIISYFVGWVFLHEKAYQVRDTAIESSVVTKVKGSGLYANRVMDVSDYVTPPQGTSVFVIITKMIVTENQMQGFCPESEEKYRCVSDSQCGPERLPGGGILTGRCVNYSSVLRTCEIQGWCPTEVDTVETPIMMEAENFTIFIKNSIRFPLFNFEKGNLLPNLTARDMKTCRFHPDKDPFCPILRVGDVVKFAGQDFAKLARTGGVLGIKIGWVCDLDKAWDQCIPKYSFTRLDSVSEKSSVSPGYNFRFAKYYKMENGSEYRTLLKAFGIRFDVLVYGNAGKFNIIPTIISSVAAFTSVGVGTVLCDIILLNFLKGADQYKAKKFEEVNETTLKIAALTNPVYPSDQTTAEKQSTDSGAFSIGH

P2X purinoceptor 3 = molecular target: T2, P2X purinoceptor 3 (Rattus norvegicus, UniProt P49654); test: Antagonist activity at rat P2X3 receptor expressed in CHO cells by FLIPR; assay type: functional, cell-based
T2 sequence (P49654 whole entry): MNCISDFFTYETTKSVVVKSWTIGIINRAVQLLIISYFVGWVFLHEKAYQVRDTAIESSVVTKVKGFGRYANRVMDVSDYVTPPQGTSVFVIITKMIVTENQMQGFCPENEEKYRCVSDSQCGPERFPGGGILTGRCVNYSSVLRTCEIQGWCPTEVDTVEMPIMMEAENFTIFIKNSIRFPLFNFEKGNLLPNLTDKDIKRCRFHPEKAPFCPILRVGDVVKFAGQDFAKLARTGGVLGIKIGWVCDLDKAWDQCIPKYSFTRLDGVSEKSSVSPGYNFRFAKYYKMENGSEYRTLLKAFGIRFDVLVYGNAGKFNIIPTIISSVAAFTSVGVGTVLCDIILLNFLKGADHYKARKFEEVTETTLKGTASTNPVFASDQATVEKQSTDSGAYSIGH

[2] = Oral bioavailability in dog; assay type: ADME, organism-based, Canis lupus familiaris; conditions: in vivo
Canis familiaris = species: Canis familiaris; test: Clearance in dog; assay type: ADME, organism-based, Canis lupus familiaris; conditions: in vivo
[3] = Half life in rat at 2 mg/kg, iv administered as single dose; assay type: ADME, organism-based; design: dose 2 mg/kg, route intravenous; conditions: in vivo
[4] = Half life in rat at 2 mg/kg, po administered as single dose; assay type: ADME, organism-based; design: dose 2 mg/kg, route oral; conditions: in vivo
[5] = Cmax in rat at 2 mg/kg, po administered as single dose; assay type: ADME, organism-based; design: dose 2 mg/kg, route oral; conditions: in vivo
P2X purinoceptor 5 = P2X purinoceptor 5 (Homo sapiens, UniProt Q93086); test: Antagonist activity at P2X5 receptor up to 10 uM; assay type: functional
Sequence of P2X purinoceptor 5 (Q93086 whole entry): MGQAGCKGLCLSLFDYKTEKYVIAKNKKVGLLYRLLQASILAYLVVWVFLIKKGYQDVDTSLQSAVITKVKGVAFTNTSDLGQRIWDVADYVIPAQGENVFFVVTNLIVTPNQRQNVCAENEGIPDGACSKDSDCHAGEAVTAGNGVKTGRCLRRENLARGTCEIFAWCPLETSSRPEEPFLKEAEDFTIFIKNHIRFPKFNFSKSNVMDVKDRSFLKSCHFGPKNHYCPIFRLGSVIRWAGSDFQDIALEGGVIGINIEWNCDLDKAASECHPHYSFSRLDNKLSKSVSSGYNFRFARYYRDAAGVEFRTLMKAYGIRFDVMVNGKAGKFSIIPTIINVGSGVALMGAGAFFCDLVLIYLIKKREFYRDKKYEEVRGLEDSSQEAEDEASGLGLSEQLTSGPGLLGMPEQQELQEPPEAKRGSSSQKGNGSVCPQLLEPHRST

[6] = Apparent permeability from apical to basolateral side of human Caco-2 cells; assay type: ADME, cell-based
[7] = Cmax in rat at 2 mg/kg, iv administered as single dose; assay type: ADME, organism-based; design: dose 2 mg/kg, route intravenous; conditions: in vivo
[8] = AUC in rat at 2 mg/kg, iv administered as single dose; assay type: ADME, organism-based; design: dose 2 mg/kg, route intravenous; conditions: plasma
Rattus norvegicus = test: Clearance in rat at 2 mg/kg, iv administered as single dose; assay type: ADME, organism-based; design: dose 2 mg/kg, route intravenous; conditions: in vivo
[9] = AUC in rat at 2 mg/kg, po administered as single dose; assay type: ADME, organism-based; design: dose 2 mg/kg, route oral; conditions: plasma
[10] = Tmax in rat at 2 mg/kg, po administered as single dose; assay type: ADME, organism-based; design: dose 2 mg/kg, route oral; conditions: in vivo
[11] = Half life in dog; assay type: ADME, organism-based, Canis lupus familiaris; conditions: in vivo
[12] = Oral bioavailability in rat at 2 mg/kg administered as single dose; assay type: ADME, organism-based; conditions: in vivo
[13] = Tmax in rat at 2 mg/kg, iv administered as single dose; assay type: ADME, organism-based; design: dose 2 mg/kg, route intravenous; conditions: in vivo

Structure (SMILES): COc1cc(C(C)C)c(Oc2cnc(NC(C)(C)CO)nc2N)cc1I
- IC50 ([1]; read-out: pIC50 (converted)): 794 nM

Structure (SMILES): COc1cc(C(C)C)c(Oc2cnc(NCC(F)(F)F)nc2N)cc1I
- IC50 (P2X purinoceptor 3; read-out: pIC50 (converted)): 79.4 nM
- IC50 ([1]; read-out: pIC50 (converted)): 200 nM

Structure (SMILES): COc1cc(C(C)C)c(Oc2cnc(NCCN(C)C)nc2N)cc1I
- IC50 (P2X purinoceptor 3; read-out: pIC50 (converted)): 158 nM
- IC50 ([1]; read-out: pIC50 (converted)): 251 nM

Structure (SMILES): COc1cc(C(C)C)c(Oc2cnc(N(C)C)nc2N)cc1I
- IC50 (P2X purinoceptor 3; read-out: pIC50 (converted)): > 10000 nM
- IC50 ([1]; read-out: pIC50 (converted)): > 10000 nM

Structure (SMILES): COc1cc(C(C)C)c(Oc2cnc(N)nc2N)cc1I
- bioavailability [2]: 72%
- clearance (Canis familiaris): 13 mL/min/kg
- half-life [3]: 0.94 h
- half-life [4]: 2.09 h
- Cmax [5]: 64.3 ng/mL
- IC50 (P2X purinoceptor 3; read-out: IC50): 13 nM
- IC50 ([1]; read-out: IC50): 25 nM
- IC50 ([1]; read-out: pIC50 (converted)): 39.8 nM
- Cmax [7]: 589 ng/mL
- AUC [8]: 628 ng·h/mL
- clearance (Rattus norvegicus): 52.8 mL/min/kg
- AUC [9]: 240 ng·h/mL
- Tmax [10]: 1.33 h
- half-life [11]: 1.5 h
- bioavailability [12]: 39%
- Tmax [13]: 0.083 h

Second part, the compound after the results:

- IC50 ([1]; read-out: pIC50 (converted)): 15.8 nM
Structure (SMILES): COc1cc(C(C)C)c(Oc2cnc(NCCO)nc2N)cc1I

- IC50 (P2X purinoceptor 3; read-out: pIC50 (converted)): 100 nM
- IC50 ([1]; read-out: pIC50 (converted)): 316 nM
Structure (SMILES): COc1cc(C(C)C)c(Oc2cnc(NC3CCN(S(C)(=O)=O)CC3)nc2N)cc1I

- bioavailability [2]: 79%
- clearance (Canis familiaris): 4.65 mL/min/kg
- half-life [3]: 1.07 h
- half-life [4]: 1.52 h
- Cmax [5]: 104 ng/mL
- IC50 (P2X purinoceptor 5): > 10000 nM
- Papp A→B [6]: 9.43 ×10⁻⁶ cm/s
- Cmax [7]: 554 ng/mL
- AUC [8]: 495 ng·h/mL
- clearance (Rattus norvegicus): 71.9 mL/min/kg
- AUC [9]: 237 ng·h/mL
- Tmax [10]: 0.833 h
- half-life [11]: 3.88 h
- bioavailability [12]: 48%
- Tmax [13]: 0.167 h
Structure (SMILES): COc1cc(C(C)C)c(Oc2cnc(NC(CO)CO)nc2N)cc1I

- IC50 (P2X purinoceptor 3; read-out: pIC50 (converted)): 158 nM
- IC50 ([1]; read-out: pIC50 (converted)): 398 nM
Structure (SMILES): COc1cc(C(C)C)c(Oc2cnc(NCCN3CCOCC3)nc2N)cc1I

— ChEMBL document CHEMBL1153300, “Identification and SAR of novel diaminopyrimidines. Part 2: The discovery of RO-51, a potent and selective, dual P2X(3)/P2X(2/3) antagonist for the treatment of pain” (Bioorg Med Chem Lett, 2009)
